Data taken from patent US3939268A, “2,4-Diamino substituted pyridol(3,2-d)pyrimidine as antithrombotic agents” (Boehringer Ingelheim GmbH, priority 1971, dated 1976).
Where a name gives a salt, the structure may show the parent alone.

Key:
[1] = system: thrombocyte aggregation / platelet stickiness (human blood); assay: retention test according to Morris (reduction in platelet stickiness, glass beads); format: cell-based; conditions: 5×10^-5 mol/liter, 10 minutes at 37°C, average of 4 - 6 determinations; for inhibition at 50 µM: Platelet, 10 min
Procedure: The inhibiting effect upon the platelet stickiness was determined by means of the so-called retention test according to Morris [see E. Deutsch et al, 1.Internationales Symposium uber Stoffwechsel and Membranpermeabilitat von Erythrocyten and Thrombocyten, Vienna, Austria (1969); Georg Thieme Verlag, Stuttgart, Germany]. […] To determine the inhibiting action of the test compound upon thrombocyte aggregation, 1 ml of human blood is pipetted into small test tubes, and the test compound is added to a final concentration of 5×10^^-5 mol/liter. The tubes are incubated for 10 minutes at 37°C. 1 gm of glass beads (glass beads for gas-chromatography) is added to half of the tubes. Finally the closed tubes are attached to a vertical wheel and rotated for 1 minute. By this means good contact is obtained between the glass beads and the blood. The tubes are then allowed to stand at room temperature for another hour, after which time a satisfactory sedimentation of erythrocytes has taken place. 0.01 ml of the supernatant plasma is removed, diluted to 1 : 8,000 with celloscope solution, and the platelet count is read in the celloscope. The percent reduction in the stickiness due to the presence of the substance (compared to tubes without glass beads) is measured and the average of 4 - 6 determinations is taken.

[2] = system: bleeding time; assay: prolongation of the bleeding time (method of Duke); format: in vivo; conditions: non-anesthetized mice, 10 mgm/kg per os, after one hour, compared to untreated animals; for change in vivo at 10 mg/kg: Mus musculus, po, 1 h
Excerpt: The prolonging effect upon the bleeding time was ascertained by the method of Duke, J. Amer. Med. Assoc. 15, 1185 (1910). 2. To determine the bleeding time, 10 mgm/kg of the test compound is given per os to non-anesthetized mice. After one hour, about 0.5 mm is cut off from the tail of each animal. The exuded blood is soaked up with filter paper every 30 seconds. The number of drops of blood so obtained is used as a measure for the bleeding time compared to untreated animals (5 animals/test).

[3] = acute toxicity (LD50); conditions: mouse, in vivo, po, mice, observation time 14 days; for mortality at 336 h: p.o., printed with LD50 >250 mg/kg, read-out: animals died
Procedure: 3. The acute toxicity of some of the compounds for orientation (observationtime : 14 days) was determined on mice, or the LD50 was calculated from the percentage of animals which died after different doses within the observation time [see J. Pharmacol. exper. Therap. 96, 99(1949)].

[4] = system: anesthetized cats and dogs; assay: hypotensive tests (method of Eckenhoff); format: in vivo; conditions: in words, warm-blooded animals, such as mice
Procedure: The hypotensive tests were performed on anesthetized cats and dogs by the method of Eckenhoff, Amer. J. Physiol. 148, 582 (1947).

## [O-][S+]1CCN(c2nc(N3CCNCC3)c3ncccc3n2)CC1 [O, 2-(1'-oxido-thiomorpholino)-4-piperazino-pyrido [3,2-d]pyrimidine]
[1]
  inhibition at 50 µM: 98%
[2]
  change in vivo at 10 mg/kg: 35%
[3]
  LD50 at 336 h: > 250 mg/kg
  mortality at 336 h: 0%
[4]
  hypotensive activity: particularly pronounced

## O=C(O)/C=C\C(=O)O.c1cnc2c(N3CCSCC3)nc(N3CCNCC3)nc2c1 [A, 2-piperazino-4-thiomorpholinopyrido[3,2-d]pyrimidine maleate]
[1]
  inhibition at 50 µM: 99%
[2]
  change in vivo at 10 mg/kg: 171%
[3]
  LD50 at 336 h: 413 mg/kg

## c1cnc2c(N3CCCCC3)nc(N3CCNCC3)nc2c1 [K, 2-piperazino-4-piperidino-pyrido[3,2-d]pyrimidine dihydrochloride]
[1]
  inhibition at 50 µM: 39%
[2]
  change in vivo at 10 mg/kg: 138%

## [O-][S+]1CCN(c2nc(N(CCCO)CCCO)nc3cccnc23)CC1 [E, 2-(dipropanol-amino)-4-(1'-oxido-thiomorpholino)-pyrido[3,2-d]pyrimidine hydrochloride]
[1]
  inhibition at 50 µM: 88%
[2]
  change in vivo at 10 mg/kg: 40%

## CN1CCN(c2nc(N3CC[S+]([O-])CC3)c3ncccc3n2)CC1 [D, 2-(n'-methyl-piperazino)-4-(1'-oxido-thiomorpholino)-pyrido[3,2-d]pyrimidine dihydrochloride]
[1]
  inhibition at 50 µM: 87%
[2]
  change in vivo at 10 mg/kg: 88%

## c1cnc2c(N3CCNCC3)nc(N3CCSCC3)nc2c1 [Example 27, 2-Thiomorpholino-4-piperazino-pyrido[3,2-d]pyrimidine]
[4]
  hypotensive activity: particularly pronounced

## O=S1(=O)CCN(c2nc(N3CCNCC3)nc3cccnc23)CC1 [M, 2-piperazino-4-(1',1'-dioxide-thiomorpholino)-pyrido[3,2-d]pyrimidine dihydrochloride]
[1]
  inhibition at 50 µM: 88%
[2]
  change in vivo at 10 mg/kg: 98%
[3]
  LD50 at 336 h: > 250 mg/kg
  mortality at 336 h: 0%

## Cc1ccc2nc(N3CCSCC3)nc(N3CCNCC3)c2n1 [Q, 2-thiomorpholino-4-piperazino-6-methyl-pyrido[3,2-d] pyrimidine dihydrochloride]
[1]
  inhibition at 50 µM: 34%

## Cc1ccc2nc(N3CCNCC3)nc(N3CC[S+]([O-])CC3)c2n1 [P, 2-piperazino-4-(1'-oxido-thiomorpholino)-6-methylpyrido[3,2-d]pyrimidine d ihydrochloride]
[1]
  inhibition at 50 µM: 89%
[2]
  change in vivo at 10 mg/kg: 98%

## CC1CN(c2nc(N3CCNCC3)nc3cccnc23)CC[S+]1[O-] (stereo not shown) [G, 2-piperazino-4-(1'-oxido-2'-methyl-thiomorpholino)-pyrido[3,2-d]pyrimidinedihydrochloride]
[1]
  inhibition at 50 µM: 96%
[2]
  change in vivo at 10 mg/kg: 55%

## OCCCN(CCCO)c1nc(N2CCOCC2)c2ncccc2n1 [J, 2-(dipropanol-amino)-4-morpholino-pyrido[3,2-d]pyrimidine dihydrochloride]
[1]
  inhibition at 50 µM: 50%
[2]
  change in vivo at 10 mg/kg: 45%

## Cl.Cl.c1cnc2c(N3CCCCC3)nc(N3CCSCC3)nc2c1 [N, 2-thiomorpholino-4-piperidino-pyrido[3,2-d]pyrimidine dihydrochloride]
[1]
  inhibition at 50 µM: 77%
[2]
  change in vivo at 10 mg/kg: 98%
[3]
  LD50 at 336 h: > 250 mg/kg
  mortality at 336 h: 0%

## OCCCN(CCCO)c1nc(N2CCCCC2)c2ncccc2n1 [L, 2-(dipropanol-amino)-4-piperidino-pyrido[3,2-d]pyrimidine hydrochloride]
[1]
  inhibition at 50 µM: 20%
[2]
  change in vivo at 10 mg/kg: 103%

## Cl.[O-][S+]1CCN(c2nc(N(CCO)CCCCCCO)nc3cccnc23)CC1 [F, 2-(n-ethanol-hexanolamino)-4-(1'-oxido-thiomorpholino)-pyrido[3,2-d]pyrimidine hydrochloride]
[1]; 50 µM
  Reduction in Stickiness: 71%
[2]
  Prolongation of Bleeding Time: 35%

## CN1CCN(c2nc(N3CCOCC3)c3ncccc3n2)CC1 [I, 2-(n'-methyl-piperazino)-4-morpholino-pyrido[3,2-d] pyrimidine dihydrochloride]
[1]
  inhibition at 50 µM: 70%
[2]
  change in vivo at 10 mg/kg: 40%

## CN1CCN(c2nc(N3CCSCC3)c3ncccc3n2)CC1 [B, 2-(n'-methyl-piperazino)-4-thiomorpholino-pyrido[3,2-d] pyrimidine dihydrochloride]
[1]
  inhibition at 50 µM: 53%
[2]
  change in vivo at 10 mg/kg: 118%

## c1cnc2c(N3CCOCC3)nc(N3CCNCC3)nc2c1 [H, 2-piperazino-4-morpholino-pyrido[3,2-d]pyrimidine dihydrochloride]
[1]
  inhibition at 50 µM: 96%
[2]
  change in vivo at 10 mg/kg: 55%

## Cl.Cl.[O-][S+]1CCN(c2nc(N3CCNCC3)nc3cccnc23)CC1 [C, 2-piperazino-4-(1'-oxido-thiomorpholino)-pyrido[3,2-d] pyrimidine dihydrochloride]
[1]
  inhibition at 50 µM: 99%
[3]
  LD50 at 336 h: 872 mg/kg
[4]
  hypotensive activity: particularly pronounced
